From patent US20260193271A1, “PAN-KRAS INHIBITOR COMPOUND” (ADLAI NORTYE BIOPHARMA CO., LTD., priority 2022, published 2026) come the findings set out here.

Assay [1] relates to SW480 (G12V). Put plainly: In vitro cell proliferation inhibition test (CellTiter-Glo), SW480. It counts as cell-based. To be noted: SW480 colon cell line, KRAS (p.G12V), 72 h co-incubation. The method in brief: (§1)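 Cells were seeded at 1000-5000/well by doubling time and cultured overnight at 37 °C, 5% CO2. They were then exposed for 72 h to 10-point, 3-fold compound dilutions (final top 10 μM), and viability was read by CellTiter-Glo luminescence. IC50 came from normalized signals fitted by four-parameter regression.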
On the technique in general: ATP-based viability assays read luminescence as a measure of living cells.

Assay [2] deals with AsPC-1 (G12D). In words: In vitro cell proliferation inhibition test (CellTiter-Glo), AsPC-1. Conditions: KRAS (p.G12D), 72 h co-incubation. It counts as cell-based. The method in brief: as §1

What is called IC50 is the midpoint of a concentration-inhibition curve.

With `CCn1c(-c2cc(-c3cc(CN4CCOCC4)on3)cnc2C(C)OC)c2c3cc(ccc31)-c1csc(n1)CC(NC(=O)C1CC1C)C(=O)N1CCCC(N1)C(=O)OCC(C)(C)C2` [Compound 22′, (1S,2S)-N-((6^3S,4S,Z)-1^1-ethyl-1^2-(2-((S)-1-methoxyethyl)-5-(5-(morpholinomethyl)isoxazol-3-yl)pyridin-3-yl)-10,10-dimethyl-5,7-dioxo-6^1,6^2,6^3,6^4,6^5,6^6-hexahydro-1^1H-8-oxa-2(4,2)-thiazola-1(5,3)-indola-6(1,3)-pyridazinacycloundecaphane-4-yl)-2-methylcyclopropane-1-carboxamide], the IC50 in assay [1] is 161 nM; in assay [2] (AsPC-1 pancreas cell line), > 10000 nM.

Consider `CCn1c(-c2cc(-c3cc(CNC)on3)cnc2C(C)OC)c2c3cc(ccc31)-c1csc(n1)CC(NC(=O)C1CC1C)C(=O)N1CCCC(N1)C(=O)OCC(C)(C)C2` [Compound 23′, (1S,2S)-N-((6^3S,4S,Z)-1^1-ethyl-1^2-(2-((S)-1-methoxyethyl)-5-(5-((methylamino)methyl)isoxazol-3-yl)pyridin-3-yl)-10,10-dimethyl-5,7-dioxo-6^1,6^2,6^3,6^4,6^5,6^6-hexahydro-1^1H-8-oxa-2(4,2)-thiazola-1(5,3)-indola-6(1,3)-pyridazinacycloundecaphane-4-yl)-2-methylcyclopropane-1-carboxamide], for which the IC50 was found to be 1340 nM in assay [1] and 2370 nM in assay [2] (AsPC-1 pancreas cell line).

For the compound `CCn1c(-c2cc(-c3cc(C4CCCN4C)on3)cnc2C(C)OC)c2c3cc(ccc31)-c1csc(n1)CC(NC(=O)C1CC1C)C(=O)N1CCCC(N1)C(=O)OCC(C)(C)C2` [Compound 24′, (1S,2S)-N-((6^3S,4S,Z)-1^1-ethyl-1^2-(2-((S)-1-methoxyethyl)-5-(5-((R)-1-methylpyrrolidin-2-yl)isoxazol-3-yl)pyridin-3-yl)-10,10-dimethyl-5,7-dioxo-6^1,6^2,6^3,6^4,6^5,6^6-hexahydro-1^1H-8-oxa-2(4,2)-thiazola-1(5,3)-indola-6(1,3)-pyridazinacycloundecaphane-4-yl)-2-methylcyclopropane-1-carboxamide], the results for the IC50 in assay [1] and in assay [2] (AsPC-1 pancreas cell line) were 3610 nM and > 10000 nM, respectively.

On to `CCn1c(-c2cc(-c3cc([C@@H]4CCCN4C)on3)cnc2[C@H](C)OC)c2c3cc(ccc31)-c1csc(n1)C[C@H](NC(=O)[C@H]1C[C@@H]1C)C(=O)N1CCC[C@H](N1)C(=O)OCC(C)(C)C2` [Compound 25′, (1S,2S)-N-((6^3S,4S,Z)-1^1-ethyl-1^2-(2-((S)-1-methoxyethyl)-5-(5-((S)-1-methylpyrrolidin-2-yl)isoxazol-3-yl)pyridin-3-yl)-10,10-dimethyl-5,7-dioxo-6^1,6^2,6^3,6^4,6^5,6^6-hexahydro-1^1H-8-oxa-2(4,2)-thiazola-1(5,3)-indola-6(1,3)-pyridazinacycloundecaphane-4-yl)-2-methylcyclopropane-1-carboxamide], for which the 50% inhibitory concentration (IC50) in assay [1] was > 10000 nM; in assay [2] (AsPC-1 pancreas cell line) it was 3420 nM.

On to `CCn1c(-c2cc(-c3cc(C4CN(C)CCO4)on3)cnc2C(C)OC)c2c3cc(ccc31)-c1csc(n1)CC(NC(=O)C1C(C)C1C)C(=O)N1CCCC(N1)C(=O)OCC(C)(C)C2` [Compound 27′, (1r,2R,3S)-N-((6^3S,4S,Z)-1^1-ethyl-1^2-(2-((S)-1-methoxyethyl)-5-(5-((S)-4-methylmorpholin-2-yl)isoxazol-3-yl)pyridin-3-yl)-10,10-dimethyl-5,7-dioxo-6^1,6^2,6^3,6^4,6^5,6^6-hexahydro-1^1H-8-oxa-2(4,2)-thiazola-1(5,3)-indola-6(1,3)-pyridazinacycloundecaphane-4-yl)-2,3-dimethylcyclopropane-1-carboxamide], for which the IC50 in assay [1] turned out to be 50 nM; in assay [2] (AsPC-1 pancreas cell line), 7.7 nM.

On to `CCn1c(-c2cc(-c3cc(C4CCN(C)C4)on3)cnc2C(C)OC)c2c3cc(ccc31)-c1csc(n1)CC(NC(=O)C1C(C)C1C)C(=O)N1CCCC(N1)C(=O)OCC(C)(C)C2` [Compound 29′, (1r,2R,3S)-N-((6^3S,4S,Z)-1^1-ethyl-1^2-(2-((S)-1-methoxyethyl)-5-(5-((R)-1-methylpyrrolidin-3-yl)isoxazol-3-yl)pyridin-3-yl)-10,10-dimethyl-5,7-dioxo-6^1,6^2,6^3,6^4,6^5,6^6-hexahydro-1^1H-8-oxa-2(4,2)-thiazola-1(5,3)-indola-6(1,3)-pyridazinacycloundecaphane-4-yl)-2,3-dimethylcyclopropane-1-carboxamide], for which the IC50 in assay [1] turned out to be 11.4 nM; in assay [2] (AsPC-1 pancreas cell line), 5.3 nM.

`CCn1c(-c2cc(-c3cnn(CC4CCCN4C)c3)cnc2C(C)OC)c2c3cc(ccc31)-c1csc(n1)CC(NC(=O)C1C(C)C1C)C(=O)N1CCCC(N1)C(=O)OCC(C)(C)C2` [Compound 62, (1r,2R,3S)-N-((6^3S,4S,Z)-1^1-ethyl-1^2-(2-((S)-1-methoxyethyl)-5-(1-(((R)-1-methylpyrrolidin-2-yl)methyl)-1H-pyrazol-4-yl)pyridin-3-yl)-10,10-dimethyl-5,7-dioxo-6^1,6^2,6^3,6^4,6^5,6^6-hexahydro-1^1H-8-oxa-2(4,2)-thiazola-1(5,3)-indola-6(1,3)-pyridazinacycloundecaphane-4-yl)-2,3-dimethylcyclopropane-1-carboxamide]: the IC50 in assay [1] came out at 3.9 nM; in assay [2] (AsPC-1 pancreas cell line), 0.54 nM.

As for `CCn1c(-c2cc(-c3cn(CC4CCN(C)CC4)nn3)cnc2C(C)OC)c2c3cc(ccc31)-c1csc(n1)C[C@H](NC(=O)[C@H]1C[C@@H]1C)C(=O)N1CCC[C@H](N1)C(=O)OCC(C)(C)C2` (stereo partly drawn) [Compound 65, (1S,2S)-N-((6^3S,4S,Z)-1^1-ethyl-1^2-(2-((S)-1-methoxyethyl)-5-(1-((1-methylpiperidin-4-yl)methyl)-1H-1,2,3-triazol-4-yl)pyridin-3-yl)-10,10-dimethyl-5,7-dioxo-6^1,6^2,6^3,6^4,6^5,6^6-hexahydro-1^1H-8-oxa-2(4,2)-thiazola-1(5,3)-indola-6(1,3)-pyridazinacycloundecaphane-4-yl)-2-methylcyclopropane-1-carboxamide], the IC50 in assay [1] (Homo sapiens) stood at 150 nM; in assay [2] (Homo sapiens, ASPC1, AsPC-1 pancreas cell line), 12 nM.

On to “(1S,2S)-N-((6^3S,4S,Z)-1^1-ethyl-1^2-(2-((S)-1-methoxyethyl)-5-(1-((R)-1-methylpyrrolidin-3-yl)-1H-pyrazol-4-yl)pyridin-3-yl)-10,10-dimethyl-5,7-dioxo-6^1,6^2,6^3,6^4,6^5,6^6-hexahydro-1^1H-8-oxa-2(4,2)-thiazola-1(5,3)-indola-6(1,3)-pyridazinacycloundecaphane-4-yl)-2-methylcyclopropane-1-carboxamide [Compound 16′]”, for which the IC50 amounted to 265 nM in assay [1] and 2280 nM in assay [2] (AsPC-1 pancreas cell line).

On to “(1S,2S)-N-((6^3S,4S,Z)-1^1-ethyl-1^2-(2-((S)-1-methoxyethyl)-5-(5-(morpholinomethyl)pyrimidin-2-yl)pyridin-3-yl)-10,10-dimethyl-5,7-dioxo-6^1,6^2,6^3,6^4,6^5,6^6-hexahydro-1^1H-8-oxa-2(4,2)-thiazola-1(5,3)-indola-6(1,3)-pyridazinacycloundecaphane-4-yl)-2-methylcyclopropane-1-carboxamide [Compound 14′]”, for which the IC50 in assay [1] was determined as 633 nM; in assay [2] (AsPC-1 pancreas cell line), 1180 nM.

In the case of “(1S,2S)-N-((6^3S,4S,Z)-1^1-ethyl-1^2-(6′-((S)-1-methoxyethyl)-4-(morpholinomethyl)-[2,3′-bipyridin]-5′-yl)-10,10-dimethyl-5,7-dioxo-6^1,6^2,6^3,6^4,6^5,6^6-hexahydro-1^1H-8-oxa-2(4,2)-thiazola-1(5,3)-indola-6(1,3)-pyridazinacycloundecaphane-4-yl)-2-methylcyclopropane-1-carboxamide [Compound 11′]”, the figures for the half-inhibitory concentration (IC50) in assay [1] and in assay [2] (AsPC-1 pancreas cell line) were 346 nM and 242 nM, respectively.

With “(1S,2S)-N-((6^3S,4S,Z)-1^1-ethyl-1^2-(6′-((S)-1-methoxyethyl)-5-(morpholinomethyl)-[2,3′-bipyridin]-5′-yl)-10,10-dimethyl-5,7-dioxo-6^1,6^2,6^3,6^4,6^5,6^6-hexahydro-1^1H-8-oxa-2(4,2)-thiazola-1(5,3)-indola-6(1,3)-pyridazinacycloundecaphane-4-yl)-2-methylcyclopropane-1-carboxamide [Compound 12′]”, the results for the IC50 in assay [1] and in assay [2] (AsPC-1 pancreas cell line) were 319 nM and 814 nM, respectively.

“(1S,2S)-N-((6^3S,4S,Z)-1^1-ethyl-1^2-(6′-((S)-1-methoxyethyl)-6-(morpholinomethyl)-[2,3′-bipyridin]-5′-yl)-10,10-dimethyl-5,7-dioxo-6^1,6^2,6^3,6^4,6^5,6^6-hexahydro-1^1H-8-oxa-2(4,2)-thiazola-1(5,3)-indola-6(1,3)-pyridazinacycloundecaphane-4-yl)-2-methylcyclopropane-1-carboxamide [Compound 13′]”: the IC50 in assay [1] is 236 nM; in assay [2] (AsPC-1 pancreas cell line) it was 302 nM.

Regarding “(1r,2R,3S)-N-((6^3S,4S,Z)-1^1-ethyl-1^2-(2-((S)-1-methoxyethyl)-5-(1-(1-methylazetidin-3-yl)-1H-pyrazol-4-yl)pyridin-3-yl)-10,10-dimethyl-5,7-dioxo-6^1,6^2,6^3,6^4,6^5,6^6-hexahydro-1^1H-8-oxa-2(4,2)-thiazola-1(5,3)-indola-6(1,3)-pyridazinacycloundecaphane-4-yl)-2,3-dimethylcyclopropane-1-carboxamide [Compound 17′]”, the values for the IC50 in assay [1] and in assay [2] (AsPC-1 pancreas cell line) were 85 nM and 697 nM, respectively.

In the case of “(1r,2R,3S)-N-((6^3S,4S,Z)-1^1-ethyl-1^2-(2-((S)-1-methoxyethyl)-5-(1-(2-(4-methylpiperazin-1-yl)ethyl)-1H-pyrazol-4-yl)pyridin-3-yl)-10,10-dimethyl-5,7-dioxo-6^1,6^2,6^3,6^4,6^5,6^6-hexahydro-1^1H-8-oxa-2(4,2)-thiazola-1(5,3)-indola-6(1,3)-pyridazinacycloundecaphane-4-yl)-2,3-dimethylcyclopropane-1-carboxamide [Compound 19′]”, the half-maximal inhibitory concentration (IC50) is 16 nM in assay [1] and 33 nM in assay [2] (AsPC-1 pancreas cell line).
